From patent US20110039721A1, “METHOD FOR PREDICTION ABOUT CARCINOGENICITY OF SUBSTANCE IN RODENT” (Chemicals Evaluation and Research Institute, priority 2007, published 2011)

Columns and labels:
rodent = conditions: classification of the substance (C+/C−); cited from earlier work
[1] = classification of the substance (M+/M−); cited from earlier work
liver = conditions: classification of the substance (Cr+/Cr−); cited from earlier work
[2] = tested on: mRNA expressed from the genes (A) to (D) in rat liver; experiment: Behavior of genes (mRNA expression level, oligo-DNA microarray) in rat liver after 28-day oral administration; assay type: in vivo; conditions: for Behavior of gene caused by administration of chemical substance, Gene No. 4846 / Behavior of gene caused by administration of chemical substance, Gene No. 2026 / Behavior of gene caused by administration of chemical substance, Gene No. 4218 / Behavior of gene caused by administration of chemical substance, Gene No. 6182 / Behavior of gene caused by administration of chemical substance, Gene No. 5600: gene group (A); for Behavior of gene caused by administration of chemical substance, Gene No. 4846: Unigene No. Rn.144554; for Behavior of gene caused by administration of chemical substance, Gene No. 2026 / Behavior of gene caused by administration of chemical substance, Gene No. 4218: Unigene No. Rn.167075; for Behavior of gene caused by administration of chemical substance, Gene No. 6182: Unigene No. Rn.5834; for Behavior of gene caused by administration of chemical substance, Gene No. 5600: Unigene No. Rn.9836; for Behavior of gene caused by administration of chemical substance, Gene No. 1494 / Behavior of gene caused by administration of chemical substance, Gene No. 2045 / Behavior of gene caused by administration of chemical substance, Gene No. 2203: gene group (B); for Behavior of gene caused by administration of chemical substance, Gene No. 1494: Unigene No. Rn.1430; for Behavior of gene caused by administration of chemical substance, Gene No. 2045: Unigene No. Rn.19329; for Behavior of gene caused by administration of chemical substance, Gene No. 2203: Unigene No. Rn.21240; for Behavior of gene caused by administration of chemical substance, Gene No. 533 / Behavior of gene caused by administration of chemical substance, Gene No. 725 / Behavior of gene caused by administration of chemical substance, Gene No. 1163 / Behavior of gene caused by administration of chemical substance, Gene No. 4973 / Behavior of gene caused by administration of chemical substance, Gene No. 4095 / Behavior of gene caused by administration of chemical substance, Gene No. 1334 / Behavior of gene caused by administration of chemical substance, Gene No. 6620 / Behavior of gene caused by administration of chemical substance, Gene No. 6303 / Behavior of gene caused by administration of chemical substance, Gene No. 5878 / Behavior of gene caused by administration of chemical substance, Gene No. 1131 / Behavior of gene caused by administration of chemical substance, Gene No. 1562 / Behavior of gene caused by administration of chemical substance, Gene No. 1741 / Behavior of gene caused by administration of chemical substance, Gene No. 893 / Behavior of gene caused by administration of chemical substance, Gene No. 6026 / Behavior of gene caused by administration of chemical substance, Gene No. 154 / Behavior of gene caused by administration of chemical substance, Gene No. 1993 / Behavior of gene caused by administration of chemical substance, Gene No. 813 / Behavior of gene caused by administration of chemical substance, Gene No. 2494 / Behavior of gene caused by administration of chemical substance, Gene No. 2546 / Behavior of gene caused by administration of chemical substance, Gene No. 3776 / Behavior of gene caused by administration of chemical substance, Gene No. 3929 / Behavior of gene caused by administration of chemical substance, Gene No. 1119 / Behavior of gene caused by administration of chemical substance, Gene No. 6742 / Behavior of gene caused by administration of chemical substance, Gene No. 5634: gene group (C); for Behavior of gene caused by administration of chemical substance, Gene No. 533: Unigene No. Rn.106184; for Behavior of gene caused by administration of chemical substance, Gene No. 725: Unigene No. Rn.108075; for Behavior of gene caused by administration of chemical substance, Gene No. 1163: Unigene No. Rn.11766; for Behavior of gene caused by administration of chemical substance, Gene No. 4973: Unigene No. Rn.118529; for Behavior of gene caused by administration of chemical substance, Gene No. 4095: Unigene No. Rn.119024; for Behavior of gene caused by administration of chemical substance, Gene No. 1334 / Behavior of gene caused by administration of chemical substance, Gene No. 6620: Unigene No. Rn.120914; for Behavior of gene caused by administration of chemical substance, Gene No. 6303: Unigene No. Rn.123063; for Behavior of gene caused by administration of chemical substance, Gene No. 5878: Unigene No. Rn.143213; for Behavior of gene caused by administration of chemical substance, Gene No. 1131: Unigene No. Rn.144946; for Behavior of gene caused by administration of chemical substance, Gene No. 1562: Unigene No. Rn.14744; for Behavior of gene caused by administration of chemical substance, Gene No. 1741: Unigene No. Rn.1647; for Behavior of gene caused by administration of chemical substance, Gene No. 893: Unigene No. Rn.164817; for Behavior of gene caused by administration of chemical substance, Gene No. 6026: Unigene No. Rn.167685; for Behavior of gene caused by administration of chemical substance, Gene No. 154: Unigene No. Rn.185941; for Behavior of gene caused by administration of chemical substance, Gene No. 1993: Unigene No. Rn.18728; for Behavior of gene caused by administration of chemical substance, Gene No. 813: Unigene No. Rn.201760; for Behavior of gene caused by administration of chemical substance, Gene No. 2494: Unigene No. Rn.23969; for Behavior of gene caused by administration of chemical substance, Gene No. 2546: Unigene No. Rn.24561; for Behavior of gene caused by administration of chemical substance, Gene No. 3776: Unigene No. Rn.43232; for Behavior of gene caused by administration of chemical substance, Gene No. 3929: Unigene No. Rn.4620; for Behavior of gene caused by administration of chemical substance, Gene No. 1119: Unigene No. Rn.9757; for Behavior of gene caused by administration of chemical substance, Gene No. 6742: Unigene No. Rn.9779; for Behavior of gene caused by administration of chemical substance, Gene No. 5634: Unigene No. Rn.9862; for Behavior of gene caused by administration of chemical substance, Gene No. 5726: gene group (D), Unigene No. Rn.9939
Method in brief: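 Liver mRNA levels were compared with matched vehicle groups, with a shift of at least 1.5-fold up or down deemed significant unless its direction disagreed with other carcinogens. Test substances were dosed orally by gavage daily for 28 days to 5-week-old male F344 rats, four per group.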

CC1CCC(C(C)C)C(O)C1 (racemic) [TS034, DL-Menthol]
Carcinogenicity (rodent): C− | Mutagenicity by Ames test [1]: M− | Liver carcinogenicity (liver): Cr− | Behavior of gene caused by administration of chemical substance, Gene No. 4846 [2]: − | Behavior of gene caused by administration of chemical substance, Gene No. 2026 [2]: + | Behavior of gene caused by administration of chemical substance, Gene No. 4218 [2]: − | Behavior of gene caused by administration of chemical substance, Gene No. 6182 [2]: − | Behavior of gene caused by administration of chemical substance, Gene No. 5600 [2]: − | Behavior of gene caused by administration of chemical substance, Gene No. 1494 [2]: + | Behavior of gene caused by administration of chemical substance, Gene No. 2045 [2]: + | Behavior of gene caused by administration of chemical substance, Gene No. 2203 [2]: + | Behavior of gene caused by administration of chemical substance, Gene No. 533 [2]: + | Behavior of gene caused by administration of chemical substance, Gene No. 725 [2]: − | Behavior of gene caused by administration of chemical substance, Gene No. 1163 [2]: − | Behavior of gene caused by administration of chemical substance, Gene No. 4973 [2]: − | Behavior of gene caused by administration of chemical substance, Gene No. 4095 [2]: − | Behavior of gene caused by administration of chemical substance, Gene No. 1334 [2]: − | Behavior of gene caused by administration of chemical substance, Gene No. 6620 [2]: − | Behavior of gene caused by administration of chemical substance, Gene No. 6303 [2]: + | Behavior of gene caused by administration of chemical substance, Gene No. 5878 [2]: − | Behavior of gene caused by administration of chemical substance, Gene No. 1131 [2]: − | Behavior of gene caused by administration of chemical substance, Gene No. 1562 [2]: − | Behavior of gene caused by administration of chemical substance, Gene No. 1741 [2]: − | Behavior of gene caused by administration of chemical substance, Gene No. 893 [2]: − | Behavior of gene caused by administration of chemical substance, Gene No. 6026 [2]: − | Behavior of gene caused by administration of chemical substance, Gene No. 154 [2]: + | Behavior of gene caused by administration of chemical substance, Gene No. 1993 [2]: − | Behavior of gene caused by administration of chemical substance, Gene No. 813 [2]: − | Behavior of gene caused by administration of chemical substance, Gene No. 2494 [2]: − | Behavior of gene caused by administration of chemical substance, Gene No. 2546 [2]: − | Behavior of gene caused by administration of chemical substance, Gene No. 3776 [2]: − | Behavior of gene caused by administration of chemical substance, Gene No. 3929 [2]: − | Behavior of gene caused by administration of chemical substance, Gene No. 1119 [2]: − | Behavior of gene caused by administration of chemical substance, Gene No. 6742 [2]: − | Behavior of gene caused by administration of chemical substance, Gene No. 5634 [2]: − | Behavior of gene caused by administration of chemical substance, Gene No. 5726 [2]: −

CCC1(c2ccccc2)C(=O)NC(=O)NC1=O [TS008, Phenobarbital]
Mutagenicity by Ames test [1]: M− | Behavior of gene caused by administration of chemical substance, Gene No. 4846 ([2]; mRNA vs vehicle control group): + | Behavior of gene caused by administration of chemical substance, Gene No. 2026 ([2]; mRNA vs vehicle control group): − | Behavior of gene caused by administration of chemical substance, Gene No. 4218 ([2]; mRNA vs vehicle control group): − | Behavior of gene caused by administration of chemical substance, Gene No. 6182 ([2]; mRNA vs vehicle control group): − | Behavior of gene caused by administration of chemical substance, Gene No. 5600 ([2]; mRNA vs vehicle control group): − | Behavior of gene caused by administration of chemical substance, Gene No. 1494 ([2]; mRNA vs vehicle control group): + | Behavior of gene caused by administration of chemical substance, Gene No. 2045 ([2]; mRNA vs vehicle control group): − | Behavior of gene caused by administration of chemical substance, Gene No. 2203 ([2]; mRNA vs vehicle control group): − | Behavior of gene caused by administration of chemical substance, Gene No. 533 ([2]; mRNA vs vehicle control group): + | Behavior of gene caused by administration of chemical substance, Gene No. 725 ([2]; mRNA vs vehicle control group): + | Behavior of gene caused by administration of chemical substance, Gene No. 1163 ([2]; mRNA vs vehicle control group): − | Behavior of gene caused by administration of chemical substance, Gene No. 4973 ([2]; mRNA vs vehicle control group): + | Behavior of gene caused by administration of chemical substance, Gene No. 4095 ([2]; mRNA vs vehicle control group): + | Behavior of gene caused by administration of chemical substance, Gene No. 1334 ([2]; mRNA vs vehicle control group): + | Behavior of gene caused by administration of chemical substance, Gene No. 6620 ([2]; mRNA vs vehicle control group): + | Behavior of gene caused by administration of chemical substance, Gene No. 6303 ([2]; mRNA vs vehicle control group): + | Behavior of gene caused by administration of chemical substance, Gene No. 5878 ([2]; mRNA vs vehicle control group): − | Behavior of gene caused by administration of chemical substance, Gene No. 1131 ([2]; mRNA vs vehicle control group): − | Behavior of gene caused by administration of chemical substance, Gene No. 1562 ([2]; mRNA vs vehicle control group): + | Behavior of gene caused by administration of chemical substance, Gene No. 1741 ([2]; mRNA vs vehicle control group): + | Behavior of gene caused by administration of chemical substance, Gene No. 893 ([2]; mRNA vs vehicle control group): + | Behavior of gene caused by administration of chemical substance, Gene No. 6026 ([2]; mRNA vs vehicle control group): + | Behavior of gene caused by administration of chemical substance, Gene No. 154 ([2]; mRNA vs vehicle control group): + | Behavior of gene caused by administration of chemical substance, Gene No. 1993 ([2]; mRNA vs vehicle control group): + | Behavior of gene caused by administration of chemical substance, Gene No. 813 ([2]; mRNA vs vehicle control group): + | Behavior of gene caused by administration of chemical substance, Gene No. 2494 ([2]; mRNA vs vehicle control group): + | Behavior of gene caused by administration of chemical substance, Gene No. 2546 ([2]; mRNA vs vehicle control group): + | Behavior of gene caused by administration of chemical substance, Gene No. 3776 ([2]; mRNA vs vehicle control group): − | Behavior of gene caused by administration of chemical substance, Gene No. 3929 ([2]; mRNA vs vehicle control group): + | Behavior of gene caused by administration of chemical substance, Gene No. 1119 ([2]; mRNA vs vehicle control group): + | Behavior of gene caused by administration of chemical substance, Gene No. 6742 ([2]; mRNA vs vehicle control group): + | Behavior of gene caused by administration of chemical substance, Gene No. 5634 ([2]; mRNA vs vehicle control group): + | Behavior of gene caused by administration of chemical substance, Gene No. 5726 ([2]; mRNA vs vehicle control group): −
